Patent US11045457B2, “Piperidinyl-3-(aryloxy)propanamides and propanoates” (priority 2018, dated 2021)

Legend:
[1] = target: T1, SSTR4 (Homo sapiens (Human), UniProt P31391); assay: SSTR4 I-125 somatostatin competition binding assay (membranes from CHO-K1 cells overexpressing SSTR4); conditions: competition with I-125 labeled somatostatin; for IC50: read-out: SSTR4 Binding pIC50 (converted)
Method: Membranes from CHO-K1 cells overexpressing SSTR4 are purchased from Perkin Elmer (catalog number ES-524-M400UA). Test compounds are suspended in DMSO and then diluted in assay buffer (25 mM HEPES pH 7.4, 10 mM MgCl2, 1 mM CaCl2), 0.5% BSA) plus 0.2 nM I-125 labeled somatostatin (Perkin Elmer catalog number NEX389). […] Then 1 μg of SSTR4 membranes in 50 μL assay buffer are added per well. The Plate is incubated for 60 minutes at room temperature. FilterMat A filters (Perkin Elmer catalog number 1450-421) are pre-soaked in 0.5% PEI (Sigma catalog number P3143). The contents of the assay plate are transferred to filters with a TomTech harvester and washed 5 times with 20 mM HEPES, 100 mM NaCl. The filters are dried in a microwave oven then transferred to sample bag containing a scintillator sheet (Perkin Elmer catalog number 1450-441). The scintillator sheets are melted to filters using a heat block. The filters are then read in a MicroBeta scintillation counter. Binding Ki curves are generated using Activity Base for Screening Data Management and the results are reported as pIC50.

[2] = target: T1, SSTR4; assay: Inhibition of forskolin stimulated cAMP in CHO-K1 cells overexpressing SSTR4; format: cell-based; conditions: for EC50: read-out: SSTR4 Activity pEC50 (converted)
Procedure, shortened: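 Read-out is a HTRF LANCE Ultra cAMP competition using Eu-labelled streptavidin and biotin-cAMP, incubated 60 min at room temperature. It followed a 30 min room-temperature exposure of Kreb's Ringer-washed cells to compound plus forskolin. Potency is expressed as pEC50.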

[3] = target: SSTR1 (Homo sapiens (Human), UniProt P30872); assay: SSTR1 I-125 somatostatin competition binding assay for selectivity versus SSTR4 (membranes from CHO-K1 cells overexpressing SSTR1); conditions: for SSTR1 Binding pIC50: competition with I-125 labeled somatostatin, CHO-K1 SSTR1 membranes;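 on all read-outs here: Filter-based radioligand binding, bound label counted by scintillation after 60 min incubation at room temperature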
SSTR1, sequence (P30872 whole entry): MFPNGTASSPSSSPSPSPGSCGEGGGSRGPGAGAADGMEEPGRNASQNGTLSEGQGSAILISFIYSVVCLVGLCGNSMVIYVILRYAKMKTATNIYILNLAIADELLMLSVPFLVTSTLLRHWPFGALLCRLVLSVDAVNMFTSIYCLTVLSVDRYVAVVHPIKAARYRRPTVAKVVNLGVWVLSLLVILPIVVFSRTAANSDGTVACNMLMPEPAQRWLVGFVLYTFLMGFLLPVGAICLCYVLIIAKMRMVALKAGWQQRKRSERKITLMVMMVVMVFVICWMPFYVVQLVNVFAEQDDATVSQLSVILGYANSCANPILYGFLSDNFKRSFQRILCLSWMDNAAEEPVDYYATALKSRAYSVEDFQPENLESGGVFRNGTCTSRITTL
Method: Membranes from CHO-K1 cells overexpressing SSTR1 are purchased from Perkin Elmer (catalog number ES-520-M400UA). […] Then 10 μg of SSTR1 membranes in 50 μL assay buffer are added per well. The plate is incubated for 60 minutes at room temperature. […] The contents of the assay plate are transferred to filters with a TomTech harvester and washed 5 times with 20 mM HEPES, 100 mM NaCl. […] The scintillator sheets are melted to the filters using a heat block. The filters are then read in a MicroBeta scintillation counter. Binding Ki curves are generated using Activity Base for Screening Data Management and the results are reported as pIC50.

T1 sequence (P31391 whole entry): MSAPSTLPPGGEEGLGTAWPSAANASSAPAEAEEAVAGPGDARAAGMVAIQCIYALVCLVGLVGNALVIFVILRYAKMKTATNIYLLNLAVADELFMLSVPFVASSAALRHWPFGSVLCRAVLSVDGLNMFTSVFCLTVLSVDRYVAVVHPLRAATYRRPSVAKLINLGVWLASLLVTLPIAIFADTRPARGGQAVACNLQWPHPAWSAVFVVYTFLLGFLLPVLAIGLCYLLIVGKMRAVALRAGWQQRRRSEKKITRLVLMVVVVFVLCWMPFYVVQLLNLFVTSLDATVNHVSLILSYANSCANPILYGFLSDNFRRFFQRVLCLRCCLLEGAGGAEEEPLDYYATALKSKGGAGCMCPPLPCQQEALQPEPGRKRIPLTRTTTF

Compound: Cc1ccccc1[C@@H]1CNCC[C@H]1NC(=O)C(C)(C)COc1ncccc1C(F)(F)F (relative stereo) [Example 157, 2,2-dimethyl-N-(trans-3-(o-tolyl)piperidin-4-yl)-3-((3-(trifluoromethyl)pyridin-2-yl)oxy)propanamide]
- SSTR4 Binding pIC50 [1]: 8.8
- SSTR4 Activity pEC50 [2]: 9.9
- SSTR1 Binding pIC50 [3]: 7.0

Compound: CN1CCC(NC(=O)C(C)(C)COc2ncccc2OC(F)(F)F)CC1 [Example 92, 2,2-dimethyl-N-(1-methylpiperidin-4-yl)-3-((3-(trifluoromethoxy)pyridin-2-yl)oxy)propanamide]
- SSTR4 Binding pIC50 [1]: 6.8
- SSTR4 Activity pEC50 [2]: 7.7
- SSTR1 Binding pIC50 [3]: 4.8

Compound: Cc1ccc([C@@H]2CN(C)C[C@H]2NC(=O)C(C)(C)COc2ncccc2C(F)(F)F)cn1 (racemic) [Example 62, trans-2,2-dimethyl-N-(1-methyl-4-(6-methylpyridin-3-yl)pyrrolidin-3-yl)-3-((3-(trifluoromethyl)pyridin-2-yl)oxy)propanamide]
- IC50 [1]: 200 nM
- EC50 [2]: 15.8 nM
- IC50 [3]: 251 nM

Compound: C[C@H]1C[C@@H](NC(=O)C(C)(C)COc2ncccc2OC(F)(F)F)CCN1C (relative stereo) [Example 136, cis-N-(1,2-dimethylpiperidin-4-yl)-2,2-dimethyl-3-((3-(trifluoromethoxy)pyridin-2-yl)oxy)propanamide]
- SSTR4 Binding pIC50 [1]: 7.1
- SSTR4 Activity pEC50 [2]: 8.1
- SSTR1 Binding pIC50 [3]: 4.8

Compound: CN1CC[C@@H](NC(=O)C(C)(C)COc2ccccc2Cl)C1 [Example 68, (R)-3-(2-chlorophenoxy)-2,2-dimethyl-N-(1-methylpyrrolidin-3-yl)propanamide]
- SSTR4 Binding pIC50 [1]: 6.8
- SSTR4 Activity pEC50 [2]: 7.5
- SSTR1 Binding pIC50 [3]: 4.6

Compound: C[C@@H]1CN(C)C[C@H]1NC(=O)C(C)(C)COc1ncccc1OC(F)(F)F (relative stereo) [Example 180, N-(trans-1,4-dimethylpyrrolidin-3-yl)-2,2-dimethyl-3-((3-(trifluoromethoxy)pyridin-2-yl)oxy)propanamide]
- SSTR4 Binding pIC50 [1]: 6.5
- SSTR4 Activity pEC50 [2]: 7.6
- SSTR1 Binding pIC50 [3]: 5.4

Compound: Cc1cccnc1OCC(C)(C)C(=O)N[C@@H]1CN(C)C[C@H]1c1cnn(C)c1 (relative stereo) [Example 18, trans-2,2-dimethyl-N-(1-methyl-4-(1-methyl-1H-pyrazol-4-yl)pyrrolidin-3-yl)-3-((3-methylpyridin-2-yl)oxy)propanamide]
- SSTR4 Binding pIC50 [1]: 6.0
- SSTR4 Activity pEC50 [2]: 7.1
- SSTR1 Binding pIC50 [3]: 5.1

Compound: Cc1cccnc1OCC(C)(C)C(=O)N[C@@H]1CN(C)C[C@H]1C (racemic) [Example 182, N-(trans-1,4-dimethylpyrrolidin-3-yl)-2,2-dimethyl-3-((3-methylpyridin-2-yl)oxy)propanamide]
- IC50 [1]: 794 nM
- EC50 [2]: 31.6 nM
- IC50 [3]: 12600 nM

Compound: C[C@@H]1C[C@H](NC(=O)C(C)(C)COc2ncccc2C2CC2)CCN1C [Example 147, 3-((3-cyclopropylpyridin-2-yl)oxy)-N-((2R,4R)-1,2-dimethylpiperidin-4-yl)-2,2-dimethylpropanamide]
- SSTR4 Binding pIC50 [1]: 7.5
- SSTR4 Activity pEC50 [2]: 8.6
- SSTR1 Binding pIC50 [3]: 5.3

Compound: CCc1ccccc1OCC(C)(C)C(=O)NC1CCN(CC(=O)c2ccc(Cl)cc2)CC1 [Example 104, N-(1-(2-(4-chlorophenyl)-2-oxoethyl)piperidin-4-yl)-3-(2-ethylphenoxy)-2,2-dimethylpropanamide]
- SSTR4 Binding pIC50 [1]: 8.0
- SSTR4 Activity pEC50 [2]: 9.2
- SSTR1 Binding pIC50 [3]: 4.8

Compound: C[C@@H]1C[C@H](NC(=O)C(F)(F)COc2ncccc2OC(F)(F)F)CCN1 [Example 212, 2,2-difluoro-N-((2R,4R)-2-methylpiperidin-4-yl)-3-((3-(trifluoromethoxy)pyridin-2-yl)oxy)propanamide]
- SSTR4 Binding pIC50 [1]: 7.4
- SSTR4 Activity pEC50 [2]: 8.6
- SSTR1 Binding pIC50 [3]: 4.5

Compound: C[C@@H]1CN(C)C[C@H]1NC(=O)C(C)(C)COc1ncccc1C1CC1 (racemic) [Example 181, 3-((3-cyclopropylpyridin-2-yl)oxy)-N-(trans-1,4-dimethylpyrrolidin-3-yl)-2,2-dimethylpropanamide]
- IC50 [1]: 398 nM
- EC50 [2]: 15.8 nM
- IC50 [3]: 3160 nM

Compound: CN1CCC(NC(=O)C(C)(C)COc2ncccc2OC(F)(F)F)C2(CC2)C1 (stereo not drawn) [Example 119, 2,2-dimethyl-N-(5-methyl-5-azaspiro[2.5]octan-8-yl)-3-((3-(trifluoromethoxy)pyridin-2-yl)oxy)propanamide]
- SSTR4 Binding pIC50 [1]: 7.3
- SSTR4 Activity pEC50 [2]: 9.0
- SSTR1 Binding pIC50 [3]: 5.0

Compound: Cc1ccccc1[C@@H]1CNCC[C@@H]1N(C)C(=O)C(C)(C)COc1ncccc1C(F)(F)F (relative stereo) [Example 156, N,2,2-trimethyl-N-(cis-3-(o-tolyl)piperidin-4-yl)-3-((3-(trifluoromethyl)pyridin-2-yl)oxy)propanamide]
- SSTR4 Binding pIC50 [1]: 6.4
- SSTR4 Activity pEC50 [2]: 7.2
- SSTR1 Binding pIC50 [3]: 4.6

Compound: C[C@@H]1C[C@H](NC(=O)C(F)(F)COc2ncccc2C2CC2)CCN1C [Example 194, 3-((3-cyclopropylpyridin-2-yl)oxy)-N-((2R,4R)-1,2-dimethylpiperidin-4-yl)-2,2-difluoropropanamide]
- SSTR4 Binding pIC50 [1]: 7.7
- SSTR4 Activity pEC50 [2]: 8.4
- SSTR1 Binding pIC50 [3]: 4.4
